Measurements reported in patent US20150218523A1, “MANUFACTURE OF VASCULAR SMOOTH MUSCLE CELLS AND THE USE” (Agency for Science, Technology and Research, priority 2014, published 2015).

What was measured:
[1] = system: NCSMCs derived from hESC (H9); details: NCSMCs at 1% oxygen, drug 48 hr (minocycline 5 μM, losartan 5 μM), then labeled Aβ for 1 hr
Method: NCSMCs and BVSMCs were routinely cultured at 21% oxygen and 1% oxygen to simulate normoxic and chronic hypoxic conditions, respectively. Twenty one percent O2 SMCs were seeded at 30,000 cells/well onto 96-well plate as positive controls. One percent O2 SMCs were seeded at the same density as negative controls and experimental samples for drug treatment on the same plate. The 96-well plate was incubated at 37° C. overnight at 21% O2. After cell attachment, 2 mg/ml of fluorescently labeled amyloid peptide (Aβ42-Hilyte Fluor 555 or Aβ40-Hilyte Fluor 488, Anaspec) was added to SMCs for a 1 hr uptake at 37° C. After Aβ uptake, cells were dissociated into single-cell suspension for high-throughput flow cytometry by LSRFortessa plate analyzer. Respective Z factors for NCSMC and BVSMC Aβ uptake assays were calculated based on their mean fluorescence brightness (normalized to no-uptake controls) and SDs of positive (21% O2) and negative (1% O2) controls. […] Mean fluorescence brightness signals (normalized to no-uptake control) indicated the degree of amyloid uptake.
NCSMC were treated with the following reference compounds for 48 hours at 37° C. prior to Aβ uptake. […]
The NCSMC and BVSMC cultures were scaled down to 96-well format. […] Cells were incubated with labeled Aβ40 and Aβ42 (2 mg/ml) for an hour and subsequently evaluated by high-throughput flow cytometry.

SMC subtypes = test: SMC contraction study; type: cell-based, human; details: angiotensin II 0.5 μM, 10 min, all SMC subtypes, n=30
Method: SMCs were preloaded with the calcium-sensitive fluorophore, Fluo-4 AM (2.5 μM; Molecular Probes) at 37° C. for an hour. Contraction was induced by treating the cells with angiotensin II (0.5 μM, Sigma). Contraction pictures and intracellular calcium flux videos of SMCs were acquired by a time-lapse microscope live cell imaging microscope (Zeiss Axiovert 200M) during 10 minutes of angiotensin II treatment. Change of cell surface area was assessed by ImageJ software.

Row | Compound | Effect on Aβ uptake (Aβ40 and Aβ42) over the vehicle control [1] | Reduction of cell surface area in contracting SMCs (SMC subtypes)
1 | CCCCc1nc(Cl)c(CO)n1Cc1ccc(-c2ccccc2-c2nn[nH]n2)cc1 [losartan] | may not have any apparent effect | –
2 | angiotensin II (DRVYIHPF; Angiotensin-2; UniProt P01019 25-32, looked up) [vasoconstrictor, an inducer of contraction (0.5 μM, Sigma)] | – | 18%-21%
